Marks after values point to notes of the source that are not given here.
Assays:
[1] = system: Staphylococcus aureus BAA-44 (multi-drug resistant MRSA); assay: MIC and MBC of Compound 10 in the absence of light (NCCLS-based broth dilution); format: cell-based; conditions: S. aureus BAA-44, subculture on nutrient agar, further 24 hours
Excerpt: The minimum inhibitory concentration (MIC) for an antimicrobial agent against a specific microorganism is defined as the minimum concentration of an antibacterial agent where no apparent visible growth of the organism is observed (FDA definition of Minimum Inhibitory Concentration). MIC's are typically determined using concentrations derived traditionally from serial twofold dilutions (National Committee for Clinical Laboratory Standards (NCCLS) Handbook M7-A5: “Methods for Dilution Antimicrobial Susceptibility Tests for Bacteria that Grow Aerobically; Approved Standard—5th Edition” Volume 20 Number 2. January 2000). The MIC for Compound 10 in the absence of light was investigated, using a protocol based on the MIC protocol produced by the NCCLS (National Committee for Clinical Laboratory Standards (NCCLS) Handbook M7-A5, supra).
Staphylococcus aureus BAA-44, a multi-drug resistant Methicillin Resistant Staphylococcus aureus (MRSA) strain obtained from the ATCC catalogue, was used in this study. The following concentrations of Compound 10 were investigated: 0.764; 0.382; 0.191; 0.0955; 0.0478; 0.0239, 0.0119, 0.00597, 0.00298, 0.00149, 0.00075 & 0.00037 μg/mL. Stock solutions were made up in distilled water and serial dilutions undertaken of this to produce the required concentrations immediately prior to use […]

[2] = system: normal human epidermal keratinocytes (NHEK); assay: Toxicity against human skin cells, MTT-assay; format: cell-based; conditions: 5 min, 1 h, 4 h incubation, 0.01-10 μM, then 24 h in the dark
Description: (§1) NHEK were incubated with different concentrations of Compound 10 for 5 min, 1 h and 4 h (0 μM, 0.01 μM, 0.1 μM, 1.0 μM, 10 μM). Cells were then incubated for 24 h in the dark. Toxicity was tested by standard MTT-assay. Cell viability was normalised to one, which means, the values of control cells were normalised to one. Red dotted line: 5 min incubation; black dotted: 1 h incubation; blue dotted: 4 h incubation only; (n=3, mean±SD).
(§2) Test compounds were screened for toxicity against cultured human skin cells using normal human epidermal keratinocytes (NHEK) and normal human dermal fibroblasts (NHDF), purchased from CellSystems Biotechnologie GmbH, Germany.
(§3) The NHEK and NHDF cells were used between passages 3 and 10. The cells were seeded with 7.5 and/or 15×10^4 cells/well (microtitre plate) and were allowed to attach overnight in an incubator (37° C., 5% CO2). After incubation with different concentrations of the selected photosensitisers for various times, the cells were incubated for 24 hours in the dark.
(§4) Toxicity was tested by standard MTT-assay (Mossman et al., 1983 J. Immunological Methods 65: 55-63). MTT is an indicator of metabolically active cells. Dependent on enzyme activity in mitochondria a colour reaction can be visualised, which can be measured by ELISA reader (540 nm). […]

[3] = system: normal human dermal fibroblasts (NHDF); assay: Toxicity against human skin cells, MTT-assay; format: cell-based; conditions: 5 min, 1 h, 4 h incubation, 0.01-10 μM, then 24 h in the dark
Description: as §1, with “NHDF” for “NHEK”, “Grey” for “Red”, “black line:” for “blue dotted:”, “incubation;” for “incubation only;”
as §2, §3, §4

[4] = Acute dermal toxicity test (OECD 402); format: in vivo; conditions: 3.2 mM in a topical formulation
Description: Compound 10 was tested at 3.2 mM in a topical formulation in a standard acute dermal toxicity test to determine if any clinical or histological toxicity for the compound could be detected.
The acute toxicity protocol was based on OECD Guidelines for the testing of chemicals/Section 4—Health Effects Test Number 402: Acute Dermal Toxicity.

[5] = system: range of S. aureus strains including MSSA, healthcare-associated and community-associated MRSA; conditions: previously shown (Love et al. 2008); cited from earlier work

## C[N+](C)(C)CCCOc1ccc(-c2c3nc(cc4ccc([nH]4)c(-c4ccc(OCCC[N+](C)(C)C)cc4)c4nc(cc5ccc2[nH]5)C=C4)C=C3)cc1.[Cl-].[Cl-] [Compound 10, 5,15-bis-[4-(3-Trimethylammonio-propyloxy)-phenyl]-porphyrin dichloride]
[1]
  MBC: 0.382* μg/mL
[2]
  Innate toxicity (cell viability, MTT): does not demonstrate an innate toxicity
[3]
  Innate toxicity (cell viability, MTT): does not demonstrate an innate toxicity
[4]
  Acute dermal toxicity (clinical and histological): does not result in any acute toxic effect
[5]
  MBC50: 1 µg/mL
  MIC50: 1 µg/mL

Reference: patent US9326511B2, “Methods of inhibiting microbial biofilms” (priority 2008, dated 2016)
